According to the NIST ThermoML archive (doi:10.1016/j.jct.2018.09.002):
± gives the expanded uncertainty stated by the source.

Experiments:
[1] = Liquid; for vapor or sublimation pressure: Ebulliometric method (Recirculating still); for Normal boiling temperature: Distillation
[2] = refractive index (Na D-line) (dimensionless); details: 101.33 kPa, Liquid, Standard Abbe refractometry

vapor or sublimation pressure ([1]; 489.08 K) | Normal boiling temperature [1] | refractive index ([2]; 298.15 K) | refractive index ([2]; 303.15 K) | vapor or sublimation pressure ([1]; 421.95 K) | refractive index ([2]; 308.15 K) | vapor or sublimation pressure ([1]; 422.25 K) | SMILES
20 ± 1.5 kPa | 269.31 ± 2.2 °C | 1.4762 ± 0.0005 | 1.4751 ± 0.0005 | – | – | – | OCCNCCO [diethanolamine]
– | 201.70 ± 2.2 °C | – | 1.5295 ± 0.0005 | 20 ± 1.5 kPa | 1.5288 ± 0.0005 | – | Cc1ccc(O)cc1 [4-methylphenol]
– | – | – | – | – | – | 20 ± 1.5 kPa | Cc1cccc(O)c1 [3-methylphenol]
